# Test results reported in patent US20230085307A1, “PYRIDAZINONE COMPOUND AND HERBICIDE” (NISSAN CHEMICAL CORPORATION, priority 2019, published 2023).
# System: oval-leafed pondweed
# Assay: Test Example 1: herbicidal activity, application before weed generation under submerged conditions (Table 16, symbol C)
# Format: in vivo, oval-leafed pondweed (Monochoria vaginalis)
# Settings: 320 g/ha applied herbicide
# Outline: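 Alluvial soil was flooded to 4 cm depth, weed seeds were sown mixed and 2.5-leaf rice seedlings were transplanted. On sowing day, the compound's emulsion, diluted in water to a set dose, was applied to the water surface. Plants grew at 25–30 °C and were scored 0–5 after three weeks.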
row,Compound,Herbicidal effect on C: oval-leafed pondweed (grade 0-5)
1,COc1cccc(S(=O)(=O)Oc2c(C)nn(C)c(=O)c2-c2c(-c3ccc(OC(F)F)cc3)sc3ccc(F)cc23)c1 [2-313],0 (Herbicidal rate of 5% or less (almost no effect))
2,C#CCSCc1ccc(-c2sc3ccc(F)cc3c2-c2c(O)c(C)nn(C)c2=O)cc1 [2-325],0 (Herbicidal rate of 5% or less (almost no effect))

# System: Japanese bulrush
# Assay: Test Example 2: herbicidal activity, application during weed generation under submerged conditions (Table 17, symbol B)
# Format: in vivo, Japanese bulrush (Schoenoplectus juncoides)
# Settings: AAH 320 g/ha; application during weed generation, submerged conditions
# Outline: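 3-wk visual-criteria score after one water-surface dose. Emulsion formulation, water-diluted to set rate; applied at 1–2 leaf stage; alluvial soil, 4 cm standing water; seeds co-sown; greenhouse 25–30° C.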
row,Compound,"herbicidal effect rating, B: Japanese bulrush"
1,COc1cccc(S(=O)(=O)Oc2c(C)nn(C)c(=O)c2-c2c(-c3ccc(OC(F)F)cc3)sc3ccc(F)cc23)c1 [2-313],3 (Herbicidal rate of 40% or more and less than 70%)
2,C#CCSCc1ccc(-c2sc3ccc(F)cc3c2-c2c(O)c(C)nn(C)c2=O)cc1 [2-325],2 (Herbicidal rate of 20% or more and less than 40%)

# System: southern crabgrass
# Assay: Test Example 4: herbicidal effect by soil treatment (Table 19, symbol F)
# Format: in vivo, southern crabgrass (Digitaria ciliaris)
# Settings: amount of applied herbicide 320 g/ha
# Outline: (§1)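 Step 1: sow seeds in sterilized diluvial soil, cover ~1.5 cm. Step 2: spray diluted emulsion onto soil surface at predetermined rate. Step 3: greenhouse, 25–30° C, three weeks. Step 4: grade effect on each plant by earlier criteria.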
row,Compound,herbicidal effect on F: southern crabgrass
1,COc1cccc(S(=O)(=O)Oc2c(C)nn(C)c(=O)c2-c2c(-c3ccc(OC(F)F)cc3)sc3ccc(F)cc23)c1 [2-313],0 (Herbicidal rate of 5% or less (almost no effect))
2,C#CCSCc1ccc(-c2sc3ccc(F)cc3c2-c2c(O)c(C)nn(C)c2=O)cc1 [2-325],0 (Herbicidal rate of 5% or less (almost no effect))

# System: green foxtail
# Assay: Test Example 4: herbicidal effect by soil treatment (Table 19, symbol G)
# Format: in vivo, green foxtail (Setaria viridis)
# Settings: amount of applied herbicide 320 g/ha
# Outline: as §1
row,Compound,herbicidal effect on G: green foxtail
1,COc1cccc(S(=O)(=O)Oc2c(C)nn(C)c(=O)c2-c2c(-c3ccc(OC(F)F)cc3)sc3ccc(F)cc23)c1 [2-313],2 (Herbicidal rate of 20% or more and less than 40%)
2,C#CCSCc1ccc(-c2sc3ccc(F)cc3c2-c2c(O)c(C)nn(C)c2=O)cc1 [2-325],2 (Herbicidal rate of 20% or more and less than 40%)

# System: barnyard grass
# Assay: Test Example 4: herbicidal effect by soil treatment (Table 19, symbol H)
# Format: in vivo, barnyard grass (Echinochloa crus-galli)
# Settings: amount of applied herbicide 320 g/ha
# Outline: as §1
row,Compound,herbicidal effect on H: barnyard grass
1,COc1cccc(S(=O)(=O)Oc2c(C)nn(C)c(=O)c2-c2c(-c3ccc(OC(F)F)cc3)sc3ccc(F)cc23)c1 [2-313],1 (Herbicidal rate of 5% or more and less than 20%)
2,C#CCSCc1ccc(-c2sc3ccc(F)cc3c2-c2c(O)c(C)nn(C)c2=O)cc1 [2-325],3 (Herbicidal rate of 40% or more and less than 70%)

# System: wild oat
# Assay: Test Example 4: herbicidal effect by soil treatment (Table 19, symbol I)
# Format: in vivo, wild oat (Avena fatua)
# Settings: amount of applied herbicide 320 g/ha
# Outline: as §1
row,Compound,herbicidal effect on I: wild oat
1,COc1cccc(S(=O)(=O)Oc2c(C)nn(C)c(=O)c2-c2c(-c3ccc(OC(F)F)cc3)sc3ccc(F)cc23)c1 [2-313],0 (Herbicidal rate of 5% or less (almost no effect))
2,C#CCSCc1ccc(-c2sc3ccc(F)cc3c2-c2c(O)c(C)nn(C)c2=O)cc1 [2-325],0 (Herbicidal rate of 5% or less (almost no effect))

# System: blackgrass
# Assay: Test Example 4: herbicidal effect by soil treatment (Table 19, symbol J)
# Format: in vivo, blackgrass (Alopecurus myosuroides)
# Settings: amount of applied herbicide 320 g/ha
# Outline: as §1
row,Compound,herbicidal effect on J: blackgrass
1,COc1cccc(S(=O)(=O)Oc2c(C)nn(C)c(=O)c2-c2c(-c3ccc(OC(F)F)cc3)sc3ccc(F)cc23)c1 [2-313],0 (Herbicidal rate of 5% or less (almost no effect))
2,C#CCSCc1ccc(-c2sc3ccc(F)cc3c2-c2c(O)c(C)nn(C)c2=O)cc1 [2-325],0 (Herbicidal rate of 5% or less (almost no effect))

# System: velvetleaf
# Assay: Test Example 4: herbicidal effect by soil treatment (Table 19, symbol M)
# Format: in vivo, velvetleaf (Abutilon theophrasti)
# Settings: amount of applied herbicide 320 g/ha
# Outline: as §1
row,Compound,herbicidal effect on M: velvetleaf
1,COc1cccc(S(=O)(=O)Oc2c(C)nn(C)c(=O)c2-c2c(-c3ccc(OC(F)F)cc3)sc3ccc(F)cc23)c1 [2-313],4 (Herbicidal rate of 70% or more and less than 90%)
2,C#CCSCc1ccc(-c2sc3ccc(F)cc3c2-c2c(O)c(C)nn(C)c2=O)cc1 [2-325],0 (Herbicidal rate of 5% or less (almost no effect))

# System: lambsquarters
# Assay: Test Example 4: herbicidal effect by soil treatment (Table 19, symbol O)
# Format: in vivo, lambsquarters (Chenopodium album)
# Settings: amount of applied herbicide 320 g/ha
# Outline: as §1
row,Compound,herbicidal effect on O: lambsquarters
1,COc1cccc(S(=O)(=O)Oc2c(C)nn(C)c(=O)c2-c2c(-c3ccc(OC(F)F)cc3)sc3ccc(F)cc23)c1 [2-313],3 (Herbicidal rate of 40% or more and less than 70%)
2,C#CCSCc1ccc(-c2sc3ccc(F)cc3c2-c2c(O)c(C)nn(C)c2=O)cc1 [2-325],4 (Herbicidal rate of 70% or more and less than 90%)

# System: chickweed
# Assay: Test Example 4: herbicidal effect by soil treatment (Table 19, symbol P)
# Format: in vivo, common chickweed (Stellaria media)
# Settings: amount of applied herbicide 320 g/ha
# Outline: as §1
row,Compound,herbicidal effect on P: chickweed
1,COc1cccc(S(=O)(=O)Oc2c(C)nn(C)c(=O)c2-c2c(-c3ccc(OC(F)F)cc3)sc3ccc(F)cc23)c1 [2-313],5 (Herbicidal rate of 90% or more (almost completely withered))
2,C#CCSCc1ccc(-c2sc3ccc(F)cc3c2-c2c(O)c(C)nn(C)c2=O)cc1 [2-325],0 (Herbicidal rate of 5% or less (almost no effect))

# System: persian speedwell
# Assay: Test Example 4: herbicidal effect by soil treatment (Table 19, symbol R)
# Format: in vivo, Persian speedwell (Veronica persica)
# Settings: amount of applied herbicide 320 g/ha
# Outline: as §1
row,Compound,herbicidal effect on R: persian speedwell
1,COc1cccc(S(=O)(=O)Oc2c(C)nn(C)c(=O)c2-c2c(-c3ccc(OC(F)F)cc3)sc3ccc(F)cc23)c1 [2-313],5 (Herbicidal rate of 90% or more (almost completely withered))
2,C#CCSCc1ccc(-c2sc3ccc(F)cc3c2-c2c(O)c(C)nn(C)c2=O)cc1 [2-325],5 (Herbicidal rate of 90% or more (almost completely withered))

# System: southern crabgrass
# Assay: Test Example 5: herbicidal effect by foliage application, plastic box (Table 20, symbol F)
# Format: in vivo, southern crabgrass (Digitaria ciliaris)
# Settings: foliage application, AAH 320 g/ha, evaluated three weeks after application
# Outline: (§2)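 Foliar spray test: emulsion formulation diluted in water to a set application rate, sprayed onto 14-day-old plants raised in diluvial soil at 25° C to 30° C under glass. Both herbicidal effect and crop effect rated visually three weeks later.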
row,Compound,"F: southern crabgrass, herbicidal effect (criteria 0-5)"
1,COc1cccc(S(=O)(=O)Oc2c(C)nn(C)c(=O)c2-c2c(-c3ccc(OC(F)F)cc3)sc3ccc(F)cc23)c1 [2-313],4 (Herbicidal rate of 70% or more and less than 90%)
2,C#CCSCc1ccc(-c2sc3ccc(F)cc3c2-c2c(O)c(C)nn(C)c2=O)cc1 [2-325],5 (Herbicidal rate of 90% or more (almost completely withered))

# System: windgrass
# Assay: Test Example 5: herbicidal effect by foliage application, plastic box (Table 20, symbol L)
# Format: in vivo, windgrass (Apera spica-venti)
# Settings: foliage application, AAH 320 g/ha, evaluated three weeks after application
# Outline: as §2
row,Compound,"L: windgrass, herbicidal effect (criteria 0-5)"
1,COc1cccc(S(=O)(=O)Oc2c(C)nn(C)c(=O)c2-c2c(-c3ccc(OC(F)F)cc3)sc3ccc(F)cc23)c1 [2-313],2 (Herbicidal rate of 20% or more and less than 40%)
2,C#CCSCc1ccc(-c2sc3ccc(F)cc3c2-c2c(O)c(C)nn(C)c2=O)cc1 [2-325],5 (Herbicidal rate of 90% or more (almost completely withered))

# System: velvetleaf
# Assay: Test Example 5: herbicidal effect by foliage application, plastic box (Table 20, symbol M)
# Format: in vivo, velvetleaf (Abutilon theophrasti)
# Settings: foliage application, AAH 320 g/ha, evaluated three weeks after application
# Outline: as §2
row,Compound,"M: velvetleaf, herbicidal effect (criteria 0-5)"
1,COc1cccc(S(=O)(=O)Oc2c(C)nn(C)c(=O)c2-c2c(-c3ccc(OC(F)F)cc3)sc3ccc(F)cc23)c1 [2-313],5 (Herbicidal rate of 90% or more (almost completely withered))
2,C#CCSCc1ccc(-c2sc3ccc(F)cc3c2-c2c(O)c(C)nn(C)c2=O)cc1 [2-325],5 (Herbicidal rate of 90% or more (almost completely withered))

# System: lambsquarters
# Assay: Test Example 5: herbicidal effect by foliage application, plastic box (Table 20, symbol O)
# Format: in vivo, lambsquarters (Chenopodium album)
# Settings: foliage application, AAH 320 g/ha, evaluated three weeks after application
# Outline: as §2
row,Compound,"O: lambsquarters, herbicidal effect (criteria 0-5)"
1,COc1cccc(S(=O)(=O)Oc2c(C)nn(C)c(=O)c2-c2c(-c3ccc(OC(F)F)cc3)sc3ccc(F)cc23)c1 [2-313],5 (Herbicidal rate of 90% or more (almost completely withered))
2,C#CCSCc1ccc(-c2sc3ccc(F)cc3c2-c2c(O)c(C)nn(C)c2=O)cc1 [2-325],5 (Herbicidal rate of 90% or more (almost completely withered))

# System: chickweed
# Assay: Test Example 5: herbicidal effect by foliage application, plastic box (Table 20, symbol P)
# Format: in vivo, common chickweed (Stellaria media)
# Settings: foliage application, AAH 320 g/ha, evaluated three weeks after application
# Outline: as §2
row,Compound,"P: chickweed, herbicidal effect (criteria 0-5)"
1,COc1cccc(S(=O)(=O)Oc2c(C)nn(C)c(=O)c2-c2c(-c3ccc(OC(F)F)cc3)sc3ccc(F)cc23)c1 [2-313],5 (Herbicidal rate of 90% or more (almost completely withered))
2,C#CCSCc1ccc(-c2sc3ccc(F)cc3c2-c2c(O)c(C)nn(C)c2=O)cc1 [2-325],5 (Herbicidal rate of 90% or more (almost completely withered))

# System: persian speedwell
# Assay: Test Example 5: herbicidal effect by foliage application, plastic box (Table 20, symbol R)
# Format: in vivo, Persian speedwell (Veronica persica)
# Settings: foliage application, AAH 320 g/ha, evaluated three weeks after application
# Outline: as §2
row,Compound,"R: persian speedwell, herbicidal effect (criteria 0-5)"
1,COc1cccc(S(=O)(=O)Oc2c(C)nn(C)c(=O)c2-c2c(-c3ccc(OC(F)F)cc3)sc3ccc(F)cc23)c1 [2-313],5 (Herbicidal rate of 90% or more (almost completely withered))
2,C#CCSCc1ccc(-c2sc3ccc(F)cc3c2-c2c(O)c(C)nn(C)c2=O)cc1 [2-325],5 (Herbicidal rate of 90% or more (almost completely withered))
